Data set [1] in a line: Three time point assay for plasma, brain and testes distribution after oral dosing. In kind it is in vivo, rat. Conditions: for Brain concentration / Kp brain/plasma / Kp testes/plasma / Plasma concentration / Testes concentration: rat, oral dosing; for brain penetration as indicated by Kp (Cbrain/Cplasma): result in words. The method in brief: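 Male SD rats received 10 mg/kg by oral gavage; plasma was sampled at one or more of 0.5, 2, 3, 5.3 and 7 h. PBS-perfused brain and testis were homogenized 1:9 in PBS (pH 7.4):MeOH 2:1, and compound levels were quantified by LC-MS/MS against calibration standards.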

Another data set addresses T1, MDR1 (MDR1-MDCKII cells) (Homo sapiens, UniProt P08183).
T1 construct: host or cells: MDCKII (canine kidney) cells
In words: Permeability in MDR1-MDCKII cells. In kind it is in vitro ADME. The note with it: for MDCKII-MDR1: Papp A-B: MDCKII-MDR1, apical to basolateral. The procedure:
Exemplary compounds were tested for cell permeability in Caco-2, MDCKII-MDR1 and MDCKII-BCRP cell lines with efflux transporter engagement inferred from the efflux ratios determined. Procedures and results are described below. […] This feature of certain compounds is in part due to efflux transporter engagement. See, for instance, exemplary such compounds included in data tables below.
MDR1-MDCKII cells (obtained from Piet Borst at the Netherlands Cancer Institute) were seeded onto […] membranes (PET) in 96-well insert systems at 2.5×10^5 cells/mL until to 4-7 days for confluent cell monolayer formation.
Test compounds were diluted with the transport buffer (HBSS with 10 mM Hepes, pH7.4) from DMSO stock solution to a concentration of 2.00 μM (DMSO<1%) and applied to the apical or basolateral side of the cell monolayer. Permeation of the test compounds from A to B direction or B to A direction was determined in duplicate. Digoxin was tested at 10.0 μM from A to B direction or B to A direction as well, while nadolol and metoprolol were tested at […] in A to B direction in duplicate. The plate was incubated for 2.5 hours in CO2 incubator at 37±1° C., with 5% CO2 at saturated humidity without shaking. In addition, the efflux ratio of each compound was also determined. Test and reference compounds were quantified by LC-MS/MS analysis based on the peak area ratio of analyte/IS.
After transport assay, Lucifer yellow rejection assay are applied to determine the cell monolayer integrity. Buffers are removed from both apical and basolateral chambers, followed by the addition of 75 μL of 100 μM lucifer yellow in transport buffer and 250 μL transport buffer in apical and basolateral chambers, respectively. The plate is incubated for 30 minutes at 37° C. with 5% CO2 and saturated humidity without shaking. After 30 minutes incubation, 20 μL of lucifer yellow samples are taken from the apical sides, followed by the addition of 60 μL of Transport Buffer. And then 80 μL of lucifer yellow samples are taken from the basolateral sides. The relative fluorescence unit (RFU) of lucifer yellow is measured at 425/528 nm (excitation/emission) with an Envision plate reader.
The apparent permeability coefficient Papp (cm/s) was calculated using the equation: […]
Where dCr/dt is the cumulative concentration of compound in the receiver chamber as a function of time (μM/s); Vr is the solution volume in the receiver chamber (0.075 mL on the apical side, 0.25 mL on the basolateral side); A is the surface area for the transport, i.e. 0.0804 cm^2 for the area of the monolayer; C0 is the initial concentration in the donor chamber (μM). The efflux ratio was calculated using the equation: […]
Where Vd is the volume in the donor chambers (0.075 mL on the apical side, 0.25 mL on the basolateral side); Cd and Cr are the final concentrations of transport compound in donor and receiver chambers, respectively.

T1 sequence (P08183 whole entry): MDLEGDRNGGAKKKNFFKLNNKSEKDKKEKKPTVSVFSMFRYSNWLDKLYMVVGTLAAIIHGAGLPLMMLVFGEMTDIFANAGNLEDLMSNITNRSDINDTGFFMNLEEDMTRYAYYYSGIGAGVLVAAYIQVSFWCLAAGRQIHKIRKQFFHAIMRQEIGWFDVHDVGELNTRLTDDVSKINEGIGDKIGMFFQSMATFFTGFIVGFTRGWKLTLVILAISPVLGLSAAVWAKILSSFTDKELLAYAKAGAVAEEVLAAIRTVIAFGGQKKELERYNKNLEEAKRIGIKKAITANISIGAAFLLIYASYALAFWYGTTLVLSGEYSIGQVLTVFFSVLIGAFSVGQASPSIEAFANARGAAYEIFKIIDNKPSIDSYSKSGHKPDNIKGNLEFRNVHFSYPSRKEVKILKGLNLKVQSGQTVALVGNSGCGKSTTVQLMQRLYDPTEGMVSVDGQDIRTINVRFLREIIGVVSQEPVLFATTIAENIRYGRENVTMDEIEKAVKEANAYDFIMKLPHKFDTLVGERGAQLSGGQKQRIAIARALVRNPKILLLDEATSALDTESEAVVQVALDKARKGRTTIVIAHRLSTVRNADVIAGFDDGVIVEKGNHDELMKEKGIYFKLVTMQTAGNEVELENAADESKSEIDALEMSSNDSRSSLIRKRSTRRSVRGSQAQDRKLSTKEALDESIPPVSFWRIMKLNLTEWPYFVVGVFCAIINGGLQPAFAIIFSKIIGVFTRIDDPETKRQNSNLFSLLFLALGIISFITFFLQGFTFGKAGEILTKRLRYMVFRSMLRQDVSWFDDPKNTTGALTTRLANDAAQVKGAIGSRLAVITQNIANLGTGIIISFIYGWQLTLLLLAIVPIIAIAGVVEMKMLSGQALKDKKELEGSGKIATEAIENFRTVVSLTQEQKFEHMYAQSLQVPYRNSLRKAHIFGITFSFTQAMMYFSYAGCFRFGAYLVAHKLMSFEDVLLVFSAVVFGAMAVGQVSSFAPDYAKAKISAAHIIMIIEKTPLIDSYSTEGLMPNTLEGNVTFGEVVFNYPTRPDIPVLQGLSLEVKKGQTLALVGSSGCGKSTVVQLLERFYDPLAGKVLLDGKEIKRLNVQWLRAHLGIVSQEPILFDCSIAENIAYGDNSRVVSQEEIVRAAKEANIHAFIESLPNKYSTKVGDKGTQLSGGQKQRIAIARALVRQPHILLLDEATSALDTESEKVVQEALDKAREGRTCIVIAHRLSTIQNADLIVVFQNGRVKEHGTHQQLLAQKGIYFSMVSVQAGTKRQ

In data set [1] (time point 2 h), `COC(=O)N1CC(c2nc(-c3ccc(Cl)c(NC(=O)c4cnc5ccccn45)c3)no2)C1` [Compound I-339] showed a Brain concentration of 603 ng/g, a Kp brain/plasma of 0.50, a Kp testes/plasma of 0.79 and a Plasma concentration of 1200 ng/mL. This compound displayed a Testes concentration in data set [1] (time point 2 h) of 947 ng/g. Further, on MDR1 (MDR1-MDCKII cells), the “MDCKII-MDR1: Efflux Ratio” value is on record as 0.84 and the “MDCKII-MDR1: Papp A-B” value is given as 22.8 10^−6 cm/s.

In data set [1] (time point 0.5 h), `Cc1ccc(-c2noc(CC(O)C(F)F)n2)cc1NC(=O)c1cnc2ccccn12` (stereo not shown) [Compound I-114] gave a Brain concentration of 106 ng/g, a Kp brain/plasma of 0.07, a Kp testes/plasma of 0.17 and a Plasma concentration of 1540 ng/mL. The same compound yielded a Testes concentration in data set [1] (time point 0.5 h) of 256 ng/g. In data set [1] (time point 2 h), this compound gave a Brain concentration of 113 ng/g, a Kp brain/plasma of 0.07, a Kp testes/plasma of 0.29 and a Plasma concentration of 1680 ng/mL. Further, the Testes concentration in data set [1] (time point 2 h) came to 482 ng/g. In data set [1] (time point 7 h), this compound had a Brain concentration of 45.5 ng/g, a Kp brain/plasma of 0.07, a Kp testes/plasma of 0.38 and a Plasma concentration of 693 ng/mL. Moreover, the Testes concentration in data set [1] (time point 7 h) stood at 248 ng/g. Also, the “brain penetration as indicated by Kp (Cbrain/Cplasma)” value in data set [1] is given as “do not significantly penetrate the brain or minimally penetrate the brain”. Further, on MDR1 (MDR1-MDCKII cells), the “MDCKII-MDR1: Efflux Ratio” value is given as 3.67 and the “MDCKII-MDR1: Papp A-B” value is reported as 7.8 10^−6 cm/s.

In data set [1] (time point 2 h), `Cc1ccc(-c2noc(C3(C)CC(F)(F)CN3)n2)cc1NC(=O)c1cnc2ccccn12` (racemic) [Compound I-328] returned a Brain concentration of 25.4 ng/g, a Kp brain/plasma of 0.42, a Kp testes/plasma of 0.93 and a Plasma concentration of 60.3 ng/mL. In data set [1] (time point 2 h), this compound had a Testes concentration of 56.2 ng/g. Further, on MDR1 (MDR1-MDCKII cells), the “MDCKII-MDR1: Efflux Ratio” value stood at 0.93 and the “MDCKII-MDR1: Papp A-B” value is reported as 20.8 10^−6 cm/s.

Regarding `COCCOCc1ccn2c(C(=O)Nc3cc(-c4noc([C@H]5C[C@@H]5F)n4)ccc3C)cnc2c1` [Compound I-84], in data set [1] (time point 2 h), the Brain concentration stood at 400 ng/g, the Kp brain/plasma was 0.07, the Kp testes/plasma is on record as 0.11 and the Plasma concentration is 5900 ng/mL. The Testes concentration in data set [1] (time point 2 h) came out at 655 ng/g. In addition, in data set [1], the “brain penetration as indicated by Kp (Cbrain/Cplasma)” value is “do not significantly penetrate the brain or minimally penetrate the brain”. In addition, at MDR1 (MDR1-MDCKII cells), the “MDCKII-MDR1: Efflux Ratio” value stood at 1.78 and the “MDCKII-MDR1: Papp A-B” value was 12.1 10^−6 cm/s.

In data set [1] (time point 0.5 h), `Cc1ccc(-c2noc([C@H]3C[C@@H]3F)n2)cc1NC(=O)c1cnc2cc(OC(F)(F)F)ccn12` [Compound I-87] gave a Brain concentration of 248 ng/g, a Kp brain/plasma of 0.60, a Kp testes/plasma of 0.38 and a Plasma concentration of 454 ng/mL. Moreover, in data set [1] (time point 0.5 h), the Testes concentration is given as 159 ng/g. In data set [1] (time point 2 h), the Brain concentration came out at 954 ng/g, the Kp brain/plasma came to 0.68, the Kp testes/plasma was found to be 0.71 and the Plasma concentration stood at 1480 ng/mL. Moreover, in data set [1] (time point 2 h), the Testes concentration stood at 989 ng/g. Moreover, in data set [1] (time point 7 h), the Brain concentration is recorded as 1730 ng/g, the Kp brain/plasma was determined as 0.36, the Kp testes/plasma was found to be 0.34 and the Plasma concentration is 4970 ng/mL. This compound showed a Testes concentration in data set [1] (time point 7 h) of 1650 ng/g. On MDR1 (MDR1-MDCKII cells), the “MDCKII-MDR1: Efflux Ratio” value stood at 0.74 and the “MDCKII-MDR1: Papp A-B” value is on record as 4.58 10^−6 cm/s.

In data set [1] (time point 0.5 h), `Cc1ccc(-c2noc([C@H]3C[C@@H]3F)n2)cc1NC(=O)c1cnc2cc(OC(C)C)ccn12` [Compound I-88] yielded a Brain concentration of 722 ng/g, a Kp brain/plasma of 0.27, a Kp testes/plasma of 0.19 and a Plasma concentration of 2640 ng/mL. In data set [1] (time point 0.5 h), this compound had a Testes concentration of 480 ng/g. Besides, in data set [1] (time point 2 h), the Brain concentration is given as 1200 ng/g, the Kp brain/plasma came out at 0.14, the Kp testes/plasma was found to be 0.16 and the Plasma concentration was 8390 ng/mL. Further, the Testes concentration in data set [1] (time point 2 h) amounted to 1330 ng/g. In data set [1] (time point 7 h), this compound gave a Brain concentration of 1250 ng/g, a Kp brain/plasma of 0.15, a Kp testes/plasma of 0.21 and a Plasma concentration of 9200 ng/mL. This compound also registered a Testes concentration in data set [1] (time point 7 h) of 1950 ng/g. Besides, on MDR1 (MDR1-MDCKII cells), the “MDCKII-MDR1: Efflux Ratio” value was 0.86 and the “MDCKII-MDR1: Papp A-B” value was 3.92 10^−6 cm/s.

In data set [1] (time point 2 h), `Cc1ccc(-c2noc(C3CC(OCCF)C3)n2)cc1NC(=O)c1cnc2ccccn12` (stereo not shown) [Compound I-369] returned a Brain concentration of 1940 ng/g, a Kp brain/plasma of 1.19, a Kp testes/plasma of 1.27 and a Plasma concentration of 1630 ng/mL. Further, in data set [1] (time point 2 h), the Testes concentration was determined as 2060 ng/g. At MDR1 (MDR1-MDCKII cells), the “MDCKII-MDR1: Efflux Ratio” value is on record as 0.87 and the “MDCKII-MDR1: Papp A-B” value is recorded as 24.4 10^−6 cm/s.

In data set [1] (time point 2 h), `Cc1ccc(-c2noc(C3CCS(=O)(=O)C3)n2)cc1NC(=O)c1cnc2ccccn12` (racemic) [Compound I-389] showed a Brain concentration of 63 ng/g, a Kp brain/plasma of 0.03, a Kp testes/plasma of 0.91 and a Plasma concentration of 2030 ng/mL. Also, in data set [1] (time point 2 h), the Testes concentration amounted to 1830 ng/g. Moreover, at MDR1 (MDR1-MDCKII cells), the “MDCKII-MDR1: Efflux Ratio” value is given as 10.9 and the “MDCKII-MDR1: Papp A-B” value is recorded as 3.53 10^−6 cm/s.

`Cc1ccc(-c2noc([C@H]3CC(F)(F)CN3)n2)cc1NC(=O)c1cnc2ccccn12` [Compound I-359]: in data set [1] (time point 2 h), the Brain concentration came out at 52.7 ng/g, the Kp brain/plasma was determined as 0.02, the Kp testes/plasma is reported as 0.12 and the Plasma concentration was determined as 2950 ng/mL. In addition, in data set [1] (time point 2 h), the Testes concentration worked out at 345 ng/g. For the same compound, on MDR1 (MDR1-MDCKII cells), the “MDCKII-MDR1: Efflux Ratio” value was 0.81 and the “MDCKII-MDR1: Papp A-B” value is 21.4 10^−6 cm/s.

On to `Cc1ccc(-c2noc(C3(O)CC(F)(F)C3)n2)cc1NC(=O)c1cnc2ccccn12` [Compound I-380], for which, in data set [1] (time point 2 h), the Brain concentration was 28.2 ng/g, the Kp brain/plasma was found to be 0.06, the Kp testes/plasma worked out at 0.09 and the Plasma concentration was found to be 477 ng/mL. The same compound had a Testes concentration in data set [1] (time point 2 h) of 44.8 ng/g. At MDR1 (MDR1-MDCKII cells), the “MDCKII-MDR1: Efflux Ratio” value was determined as 2.34 and the “MDCKII-MDR1: Papp A-B” value is given as 10.9 10^−6 cm/s.

In data set [1] (time point 2 h), `Cc1ccc(-c2noc([C@@H](C)O)n2)cc1NC(=O)c1cnc2ccccn12` [Compound I-270] had a Brain concentration of 25.6 ng/g, a Kp brain/plasma of 0.06, a Kp testes/plasma of 0.09 and a Plasma concentration of 422 ng/mL. The compound also had a Testes concentration in data set [1] (time point 2 h) of 39.3 ng/g. Moreover, at MDR1 (MDR1-MDCKII cells), the “MDCKII-MDR1: Efflux Ratio” value is reported as 1.73 and the “MDCKII-MDR1: Papp A-B” value is 17.2 10^−6 cm/s.
